Biological target: T1, NA transporter (Rattus norvegicus, UniProt Q9WTR4)
T1 construct: synaptosomes were freshly isolated from rat brain regions; from tissue; host or cells: rat hypothalamus synaptosomes (P2 fraction)
Assay: Noradrenaline reuptake inhibition (NA uptake inhibition) in rat brain synaptosomes
Format: biochemical
Conditions: test concentration of 10^−5 M; synaptosomes (P2 fraction) from the hypothalamus of male rat brains
Procedure: Investigations Relating to Noradrenaline Reuptake Inhibition (NA Uptake Inhibition)
The compounds according to the invention are NA uptake inhibitors. In order to be able to carry out these in vitro studies, synaptosomes were freshly isolated from rat brain regions. A so-called “P2” fraction was used, which was prepared according to the instructions given by Gray and Whittaker (E. G. Gray and V. P. Whittaker (1962) J. Anat. 76, 79-88). For NA uptake, these vesicular particles were isolated from the hypothalamus of male rat brains.
The following characteristics were determined for the NA transporter: NA uptake: Km=0.32±0.11 μM (In each case N=4, i.e. means±SEM from 4 independent series of tests, which were performed as parallel tests in triplicate).
A detailed description of the method may be found in the literature (M. Ch. Frink, H.-H. Hennies, W. Englberger, M. Haurand and B. Wilffert (1996) Arzneim.-Forsch./Drug Res. 46 (III), 11, 1029-1036). The NA uptake inhibition of selected compounds was determined. The values were determined at a test concentration of 10^−5 M.

T1 sequence (Q9WTR4 1-597): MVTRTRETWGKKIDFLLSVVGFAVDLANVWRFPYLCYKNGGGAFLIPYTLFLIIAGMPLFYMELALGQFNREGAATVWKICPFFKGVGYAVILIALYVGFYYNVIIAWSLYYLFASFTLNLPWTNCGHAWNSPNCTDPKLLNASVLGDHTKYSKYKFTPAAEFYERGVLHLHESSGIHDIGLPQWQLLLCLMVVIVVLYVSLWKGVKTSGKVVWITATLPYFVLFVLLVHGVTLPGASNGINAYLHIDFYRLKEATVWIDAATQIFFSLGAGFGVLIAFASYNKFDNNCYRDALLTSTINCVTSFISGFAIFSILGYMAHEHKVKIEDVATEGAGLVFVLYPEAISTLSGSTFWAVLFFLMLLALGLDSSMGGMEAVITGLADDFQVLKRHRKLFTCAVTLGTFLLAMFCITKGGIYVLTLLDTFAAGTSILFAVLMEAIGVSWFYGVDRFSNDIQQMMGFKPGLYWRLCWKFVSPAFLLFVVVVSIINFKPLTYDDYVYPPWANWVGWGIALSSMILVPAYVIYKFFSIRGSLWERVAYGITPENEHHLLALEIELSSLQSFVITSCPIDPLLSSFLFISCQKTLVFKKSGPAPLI

## OC1(Cc2ccccc2)CCCCCC1CN1CCCCCC1 (stereo not shown) [2-Azepan-1-ylmethyl-1-benzyl-cycloheptanol]
  inhibition at 10 µM: 55%

## OC1(c2ccc(Cl)cc2)CCCC1CN1CCCCCC1 (stereo not shown) [2-Azepan-1-ylmethyl-1-(4-chloro-phenyl)-cyclopentanol]
  inhibition at 10 µM: 80%

## OC1(c2cccc(Cl)c2Cl)CCCC1CN1CCCC1 (stereo not shown) [1-(2,3-Dichloro-phenyl)-2-pyrrolidin-1-ylmethyl-cyclopentanol]
  inhibition at 10 µM: 53%

## OC1(CCc2ccccc2)CCCCC1CN1CCCCCC1 (stereo not shown) [2-Azepan-1-ylmethyl-1-phenethyl-cyclohexanol]
  inhibition at 10 µM: 70%

## Cc1cc(C2(O)CCCC2CN2CCCC2)ccc1F (stereo not shown) [1-(4-Fluoro-3-methyl-phenyl)-2-pyrrolidin-1-ylmethyl-cyclopentanol]
  inhibition at 10 µM: 59%

## Cc1cccc(C2(O)CCCC2CN2CCCCCC2)c1 (stereo not shown) [2-Azepan-1-ylmethyl-1-m-tolyl-cyclopentanol]
  inhibition at 10 µM: 59%

## Cc1cccc(C2(O)CCCC2CN2CCCC2)c1 (stereo not shown) [2-Pyrrolidin-1-ylmethyl-1-m-tolyl-cyclopentanol]
  inhibition at 10 µM: 52%

## Cc1cc(C2(O)CCCCCC2CN2CCCC2)ccc1F (stereo not shown) [1-(4-Fluoro-3-methyl-phenyl)-2-pyrrolidin-1-ylmethyl-cycloheptanol]
  inhibition at 10 µM: 83%

## Cc1ccc(C2(O)CCCC2CN2CCCCCC2)cc1 (stereo not shown) [2-Azepan-1-ylmethyl-1-p-tolyl-cyclopentanol]
  inhibition at 10 µM: 70%

## OC1(C#Cc2ccccc2)CCCC1CN1CCCCCC1 (stereo not shown) [2-Azepan-1-ylmethyl-1-phenylethynyl-cyclopentanol]
  NA Uptake (% inhibition): 99%

## OC1(CCc2ccccc2)CCCC1CN1CCCC1 (stereo not shown) [1-Phenethyl-2-pyrrolidin-1-ylmethyl-cyclopentanol]
  inhibition at 10 µM: 59%

## OC1(c2cccc(Cl)c2Cl)CCCCC1CN1CCCC1 (stereo not shown) [1-(2,3-Dichloro-phenyl)-2-pyrrolidin-1-ylmethyl-cyclohexanol]
  inhibition at 10 µM: 60%

## Cc1ccc(C2(O)CCCCC2CN2CCCC2)cc1 (stereo not shown) [2-Pyrrolidin-1-ylmethyl-1-p-tolyl-cyclohexanol]
  inhibition at 10 µM: 59%

## CCC(O)(C#Cc1ccccc1)C(C)CN1CCCC1 (stereo not shown) [3-Ethyl-4-methyl-1-phenyl-5-pyrrolidin-1-yl-pent-1-yn-3-ol]
  inhibition at 10 µM: 76%

## OC1(CCCc2ccccc2)CCCC1CN1CCCCCC1 (stereo not shown) [2-Azepan-1-ylmethyl-1-(3-phenyl-propyl)-cyclopentanol]
  inhibition at 10 µM: 59%

## OC1(c2ccccc2)CCCCCC1CN1CCCC1 (stereo not shown) [1-Phenyl-2-pyrrolidin-1-ylmethyl-cycloheptanol]
  inhibition at 10 µM: 56%

## Cc1ccc(C2(O)CCCC2CN2CCCC2)cc1 (stereo not shown) [2-Pyrrolidin-1-ylmethyl-1-p-tolyl-cyclopentanol]
  inhibition at 10 µM: 78%

## Cc1cc(C2(O)CCCC2CN2CCCCCC2)ccc1F (stereo not shown) [2-Azepan-1-ylmethyl-1-(4-fluoro-3-methyl-phenyl)-cyclopentanol]
  inhibition at 10 µM: 73%

## OC1(c2ccc(F)cc2)CCCCC1CN1CCCCCC1 (stereo not shown) [2-Azepan-1-ylmethyl-1-(4-fluoro-phenyl)-cyclohexanol]
  inhibition at 10 µM: 52%

## Cc1cccc(C2(O)CCCCCC2CN2CCCC2)c1 (stereo not shown) [2-Pyrrolidin-1-ylmethyl-1-m-tolyl-cycloheptanol]
  inhibition at 10 µM: 67%

## OC1(CCCc2ccccc2)CCCC1CN1CCCC1 (stereo not shown) [1-(3-Phenyl-propyl)-2-pyrrolidin-1-ylmethyl-cyclopentanol]
  inhibition at 10 µM: 65%

## Cc1ccc(C2(O)CCCCCC2CN2CCCCCC2)cc1 (stereo not shown) [2-Azepan-1-ylmethyl-1-p-tolyl-cycloheptanol]
  inhibition at 10 µM: 58%

## OC1(CCCc2ccccc2)CCCCC1CN1CCCCCC1 (stereo not shown) [2-Azepan-1-ylmethyl-1-(3-phenyl-propyl)-cyclohexanol]
  inhibition at 10 µM: 77%

## OC1(CCc2ccccc2)CCCCCC1CN1CCCC1 (stereo not shown) [1-Phenethyl-2-pyrrolidin-1-ylmethyl-cycloheptanol]
  inhibition at 10 µM: 82%

## COc1ccc(C2(O)CCCCCC2CN2CCCC2)cc1 (stereo not shown) [1-(4-Methoxy-phenyl)-2-pyrrolidin-1-ylmethyl-cycloheptanol]
  inhibition at 10 µM: 69%

## OC1(c2cccc(Cl)c2Cl)CCCCCC1CN1CCCC1 (stereo not shown) [1-(2,3-Dichloro-phenyl)-2-pyrrolidin-1-ylmethyl-cycloheptanol]
  inhibition at 10 µM: 63%

## OC1(c2ccc(Cl)cc2)CCCC1CN1CCCC1 (stereo not shown) [1-(4-Chloro-phenyl)-2-pyrrolidin-1-ylmethyl-cyclopentanol]
  NA Uptake (% inhibition): 68%
  inhibition at 10 µM: 75%

## OC1(CCc2ccccc2)CCCC1CN1CCCCCC1 (stereo not shown) [2-Azepan-1-ylmethyl-1-phenethyl-cyclopentanol]
  inhibition at 10 µM: 92%

## OC1(c2cccs2)CCCC1CN1CCCCCC1 (stereo not shown) [2-Azepan-1-ylmethyl-1-thiophen-2-yl-cyclopentanol]
  inhibition at 10 µM: 51%

## COc1ccc(C2(O)CCCCC2CN2CCCCCC2)cc1 (stereo not shown) [2-Azepan-1-ylmethyl-1-(4-methoxy-phenyl)-cyclohexanol]
  inhibition at 10 µM: 58%

## COc1ccc(C2(O)CCCCCC2CN2CCCCCC2)cc1 (stereo not shown) [2-Azepan-1-ylmethyl-1-(4-methoxy-phenyl)-cycloheptanol]
  inhibition at 10 µM: 58%

## OC1(c2ccc(Cl)cc2Cl)CCCCCC1CN1CCCC1 (stereo not shown) [1-(2,4-Dichloro-phenyl)-2-pyrrolidin-1-ylmethyl-cycloheptanol]
  inhibition at 10 µM: 55%

## Cc1cc(C2(O)CCCCCC2CN2CCCCCC2)ccc1F (stereo not shown) [2-Azepan-1-ylmethyl-1-(4-fluoro-3-methyl-phenyl)-cycloheptanol]
  inhibition at 10 µM: 63%

## OC1(CCc2ccccc2)CCCCCC1CN1CCCCCC1 (stereo not shown) [2-Azepan-1-ylmethyl-1-phenethyl-cycloheptanol]
  inhibition at 10 µM: 87%

## OC1(CCCc2ccccc2)CCCCCC1CN1CCCC1 (stereo not shown) [1-(3-Phenyl-propyl)-2-pyrrolidin-1-ylmethyl-cycloheptanol]
  inhibition at 10 µM: 63%

## COc1ccc(C2(O)CCCC2CN2CCCCCC2)cc1 (stereo not shown) [2-Azepan-1-ylmethyl-1-(4-methoxy-phenyl)-cyclopentanol]
  inhibition at 10 µM: 58%

## OC1(c2ccccc2)CCCCCC1CN1CCCCCC1 (stereo not shown) [2-Azepan-1-ylmethyl-1-phenyl-cycloheptanol]
  inhibition at 10 µM: 52%

## Cc1ccc(C2(O)CCCCC2CN2CCCCCC2)cc1 (stereo not shown) [2-Azepan-1-ylmethyl-1-p-tolyl-cyclohexanol]
  inhibition at 10 µM: 64%

## Cc1ccc(C2(O)CCCCCC2CN2CCCC2)cc1 (stereo not shown) [2-Pyrrolidin-1-ylmethyl-1-p-tolyl-cycloheptanol]
  inhibition at 10 µM: 76%

## Cc1cc(C2(O)CCCCC2CN2CCCCCC2)ccc1F (stereo not shown) [2-Azepan-1-ylmethyl-1-(4-fluoro-3-methyl-phenyl)-cyclohexanol]
  inhibition at 10 µM: 54%

## OC1(c2ccc(F)cc2)CCCCCC1CN1CCCC1 (stereo not shown) [1-(4-Fluoro-phenyl)-2-pyrrolidin-1-ylmethyl-cycloheptanol]
  inhibition at 10 µM: 57%

## OC1(C#Cc2ccccc2)CCCC1CN1CCCC1 (stereo not shown) [1-Phenylethynyl-2-pyrrolidin-1-ylmethyl-cyclopentanol]
  NA Uptake (% inhibition): 92%
